ChEMBL document CHEMBL1201862, “PubChem BioAssay data set” (2004)
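Following 48 hours of exposure in 96-well plates, responses at five concentrations were used to interpolate endpoints linearly. GI50 is the concentration that inhibits growth by half.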 Calls of active or inactive are those of the source. Cut-off read from the data, not from the text of the source: active = GI50 up to about 1.1 µM and inactive = higher.

What was measured:
Experiment in all cases: NCI tumour cell line growth inhibition, 48 h
ACHN = test system: ACHN
CCRF-CEM = test system: CCRF-CEM
COLO 205 = test system: COLO 205
DLD-1 = test system: DLD-1
DMS-114 = test system: DMS-114
DMS-273 = test system: DMS-273
EKVX = test system: EKVX
HCC 2998 = test system: HCC 2998
HCT-116 = test system: HCT-116
HCT-15 = test system: HCT-15
HL-60 = test system: HL-60
HOP-62 = test system: HOP-62
HOP-92 = test system: HOP-92
HT-29 = test system: HT-29
IGROV-1 = test system: IGROV-1
K562 = test system: K562
KM-20L2 = test system: KM-20L2
KM12 = test system: KM12
LOX IMVI = test system: LOX IMVI
LXFL 529 = test system: LXFL 529
M14 = test system: M14
M19-MEL = test system: M19-MEL
MOLT-4 = test system: MOLT-4
Malme-3M = test system: Malme-3M
NCI-H226 = test system: NCI-H226
NCI-H23 = test system: NCI-H23
NCI-H460 = test system: NCI-H460
OVCAR-3 = test system: OVCAR-3
OVCAR-5 = test system: OVCAR-5
OVCAR-8 = test system: OVCAR-8
RPMI-8226 = test system: RPMI-8226
RXF 393 = test system: RXF 393
SF-268 = test system: SF-268
SF-295 = test system: SF-295
SK-MEL-28 = test system: SK-MEL-28
SK-MEL-2 = test system: SK-MEL-2
SK-MEL-5 = test system: SK-MEL-5
SK-OV-3 = test system: SK-OV-3
SN12C = test system: SN12C
SNB-75 = test system: SNB-75
SR = test system: SR
SW-620 = test system: SW-620
TK-10 = test system: TK-10
U-251 = test system: U-251
UACC-257 = test system: UACC-257
UACC-62 = test system: UACC-62
UO-31 = test system: UO-31
XF498 = test system: XF498
786-0 = test system: 786-0
A549 = test system: A549
CAKI-1 = test system: CAKI-1
HOP-18 = test system: HOP-18
NCI-H522 = test system: NCI-H522
OVCAR-4 = test system: OVCAR-4
SF-539 = test system: SF-539
SNB-19 = test system: SNB-19
SNB-78 = test system: SNB-78
A498 = test system: A498

For `COc1ccc(Nc2cnc3cc(N)ccc3n2)cc1OC`, the GI50 (ACHN) was 83.9 µM (inactive), the GI50 (CCRF-CEM) was 37.4 µM (inactive) and the GI50 (COLO 205) was > 100 µM (inactive). The GI50 (DLD-1) was > 100 µM (inactive), the GI50 (DMS-114) was 47 µM (inactive) and the GI50 (DMS-273) was 56.2 µM (inactive). For the same molecule, the GI50 (EKVX) was > 100 µM (inactive), the GI50 (HCC 2998) was 29.2 µM (inactive) and the GI50 (HCT-116) was 86.1 µM (inactive). The GI50 (HCT-15) was greater than 100 µM, the GI50 (HL-60) was 26.7 µM (inactive) and the GI50 (HOP-62) was 61.1 µM (inactive). The GI50 (HOP-92) was 7.62 µM (inactive), the GI50 (HT-29) was > 100 µM (inactive) and the GI50 (IGROV-1) was > 100 µM (inactive). The GI50 (K562) was 46.8 µM (inactive), the GI50 (KM-20L2) was 63.1 µM (inactive) and the GI50 (KM12) was 70.5 µM (inactive). For the same molecule, the GI50 (LOX IMVI) was 37.1 µM (inactive), the GI50 (LXFL 529) was 13.2 µM (inactive) and the GI50 (M14) was > 100 µM (inactive). The GI50 (M19-MEL) was > 100 µM (inactive), the GI50 (MOLT-4) was 36.5 µM (inactive) and the GI50 (Malme-3M) was > 100 µM (inactive). For the same molecule, the GI50 (NCI-H226) was 53.8 µM (inactive), the GI50 (NCI-H23) was 26.9 µM (inactive) and the GI50 (NCI-H460) was 23.9 µM (inactive). For the same molecule, the GI50 (OVCAR-3) was > 100 µM (inactive), the GI50 (OVCAR-5) was > 100 µM (inactive) and the GI50 (OVCAR-8) was 37.4 µM (inactive). For the same molecule, the GI50 (RPMI-8226) was 23.9 µM (inactive), the GI50 (RXF 393) was > 100 µM (inactive) and the GI50 (SF-268) was 74.1 µM (inactive). The GI50 (SF-295) was 34.3 µM (inactive), the GI50 (SK-MEL-28) was > 100 µM (inactive) and the GI50 (SK-MEL-2) was 44.3 µM (inactive). The GI50 (SK-MEL-5) was 49.9 µM (inactive), the GI50 (SK-OV-3) was > 100 µM (inactive) and the GI50 (SN12C) was 39.3 µM (inactive). For the same molecule, the GI50 (SNB-75) was > 100 µM (inactive), the GI50 (SR) was 33.7 µM (inactive) and the GI50 (SW-620) was > 100 µM (inactive). The GI50 (TK-10) was > 100 µM (inactive), the GI50 (U-251) was 40.7 µM (inactive) and the GI50 (UACC-257) was > 100 µM (inactive). For the same molecule, the GI50 (UACC-62) was 72.3 µM (inactive), the GI50 (UO-31) was > 100 µM (inactive) and the GI50 (XF498) was 54.6 µM (inactive).

For `O=C(c1ccco1)N(C(=S)N1CCN(c2ccccn2)CC1)C1CCCCC1`, the GI50 (786-0) was > 100 µM (inactive), the GI50 (A549) was > 100 µM (inactive) and the GI50 (ACHN) was > 100 µM (inactive). The GI50 (CAKI-1) was > 100 µM (inactive), the GI50 (CCRF-CEM) was > 100 µM (inactive) and the GI50 (COLO 205) was > 100 µM (inactive). For the same molecule, the GI50 (DLD-1) was > 100 µM (inactive), the GI50 (DMS-114) was 77.3 µM (inactive) and the GI50 (DMS-273) was > 100 µM (inactive). For the same molecule, the GI50 (HCT-116) was > 100 µM (inactive), the GI50 (HCT-15) was greater than 100 µM and the GI50 (HL-60) was > 100 µM (inactive). For the same molecule, the GI50 (HOP-18) was > 100 µM (inactive), the GI50 (HOP-62) was > 100 µM (inactive) and the GI50 (HOP-92) was > 100 µM (inactive). For the same molecule, the GI50 (HT-29) was > 100 µM (inactive), the GI50 (IGROV-1) was > 100 µM (inactive) and the GI50 (K562) was > 100 µM (inactive). For the same molecule, the GI50 (KM-20L2) was > 100 µM (inactive), the GI50 (KM12) was > 100 µM (inactive) and the GI50 (LOX IMVI) was > 100 µM (inactive). The GI50 (LXFL 529) was > 100 µM (inactive), the GI50 (M14) was > 100 µM (inactive) and the GI50 (M19-MEL) was > 100 µM (inactive). The GI50 (MOLT-4) was 83.4 µM (inactive), the GI50 (Malme-3M) was > 100 µM (inactive) and the GI50 (NCI-H226) was > 100 µM (inactive). The GI50 (NCI-H23) was > 100 µM (inactive), the GI50 (NCI-H460) was > 100 µM (inactive) and the GI50 (NCI-H522) was > 100 µM (inactive). For the same molecule, the GI50 (OVCAR-3) was > 100 µM (inactive), the GI50 (OVCAR-4) was > 100 µM (inactive) and the GI50 (OVCAR-5) was > 100 µM (inactive). For the same molecule, the GI50 (OVCAR-8) was > 100 µM (inactive), the GI50 (RPMI-8226) was > 100 µM (inactive) and the GI50 (RXF 393) was > 100 µM (inactive). For the same molecule, the GI50 (SF-268) was > 100 µM (inactive), the GI50 (SF-295) was > 100 µM (inactive) and the GI50 (SF-539) was > 100 µM (inactive). The GI50 (SK-MEL-28) was > 100 µM (inactive), the GI50 (SK-MEL-2) was > 100 µM (inactive) and the GI50 (SK-MEL-5) was > 100 µM (inactive). For the same molecule, the GI50 (SK-OV-3) was > 100 µM (inactive), the GI50 (SN12C) was > 100 µM (inactive) and the GI50 (SNB-19) was > 100 µM (inactive). For the same molecule, the GI50 (SNB-75) was > 100 µM (inactive), the GI50 (SNB-78) was > 100 µM (inactive) and the GI50 (SR) was > 100 µM (inactive). For the same molecule, the GI50 (SW-620) was > 100 µM (inactive), the GI50 (TK-10) was > 100 µM (inactive) and the GI50 (U-251) was > 100 µM (inactive). The GI50 (UACC-257) was > 100 µM (inactive), the GI50 (UACC-62) was > 100 µM (inactive) and the GI50 (UO-31) was 83.4 µM (inactive).

`NC(=O)CN(CC(N)=O)C(N)=O` was tested, and the GI50 (786-0) was > 100 µM (inactive), the GI50 (A498) was > 100 µM (inactive) and the GI50 (A549) was > 100 µM (inactive). For the same molecule, the GI50 (ACHN) was > 100 µM (inactive), the GI50 (CAKI-1) was > 100 µM (inactive) and the GI50 (CCRF-CEM) was > 100 µM (inactive). For the same molecule, the GI50 (COLO 205) was > 100 µM (inactive), the GI50 (DMS-114) was > 100 µM (inactive) and the GI50 (DMS-273) was > 100 µM (inactive). The GI50 (EKVX) was > 100 µM (inactive), the GI50 (HCT-116) was > 100 µM (inactive) and the GI50 (HCT-15) was greater than 100 µM. The GI50 (HL-60) was > 100 µM (inactive), the GI50 (HOP-18) was > 100 µM (inactive) and the GI50 (HOP-92) was > 100 µM (inactive). The GI50 (HT-29) was > 100 µM (inactive), the GI50 (IGROV-1) was > 100 µM (inactive) and the GI50 (K562) was > 100 µM (inactive). For the same molecule, the GI50 (KM-20L2) was > 100 µM (inactive), the GI50 (KM12) was > 100 µM (inactive) and the GI50 (LOX IMVI) was > 100 µM (inactive). For the same molecule, the GI50 (LXFL 529) was > 100 µM (inactive), the GI50 (M14) was > 100 µM (inactive) and the GI50 (M19-MEL) was > 100 µM (inactive). The GI50 (MOLT-4) was > 100 µM (inactive), the GI50 (Malme-3M) was > 100 µM (inactive) and the GI50 (NCI-H226) was > 100 µM (inactive). For the same molecule, the GI50 (NCI-H23) was > 100 µM (inactive), the GI50 (NCI-H460) was > 100 µM (inactive) and the GI50 (NCI-H522) was > 100 µM (inactive). For the same molecule, the GI50 (OVCAR-3) was > 100 µM (inactive), the GI50 (OVCAR-4) was > 100 µM (inactive) and the GI50 (OVCAR-5) was > 100 µM (inactive). The GI50 (OVCAR-8) was > 100 µM (inactive), the GI50 (RPMI-8226) was > 100 µM (inactive) and the GI50 (RXF 393) was > 100 µM (inactive). The GI50 (SF-268) was > 100 µM (inactive), the GI50 (SF-295) was > 100 µM (inactive) and the GI50 (SF-539) was > 100 µM (inactive). The GI50 (SK-MEL-28) was > 100 µM (inactive), the GI50 (SK-MEL-2) was > 100 µM (inactive) and the GI50 (SK-MEL-5) was > 100 µM (inactive). The GI50 (SK-OV-3) was > 100 µM (inactive), the GI50 (SNB-19) was > 100 µM (inactive) and the GI50 (SNB-75) was 23 µM (inactive). The GI50 (SNB-78) was > 100 µM (inactive), the GI50 (SW-620) was > 100 µM (inactive) and the GI50 (TK-10) was > 100 µM (inactive). The GI50 (U-251) was > 100 µM (inactive), the GI50 (UACC-257) was > 100 µM (inactive) and the GI50 (UACC-62) was > 100 µM (inactive). For the same molecule, the GI50 (UO-31) was > 100 µM (inactive) and the GI50 (XF498) was > 100 µM (inactive).
